Assay results published in patent US4704451A, “Mitogenic peptides” (Washington University, priority 1985, dated 1987).

Tests used:
macrophage-like cells = experiment: Mitogenic activity for macrophage-like cells; format: cell-based
Method: (§1) The growth stimulation of macrophage-like cells can be determined by measuring the thymidine uptake of the cells at varying concentrations of the mitogenic peptides of the present invention. This was determined for several macrophage-like cell lines including J774, P388Dl, RAW and PU5. These are well-known murine cell lines available, for example, from the American Type Culture Collection, Rockville, Md.

[1] = test system: P388D1 macrophage-like cell line; experiment: 3[H]-TdR incorporation in growth-arrested P388D1 cells; format: cell-based, murine; conditions: test (2), P388D1, 10^-7 M (optimal concentration), mean ± s.e.m.
Method: as §1
(§2) ^3 [H]-TdR incorporation. Various cell lines were plated in Dulbeccos's Modified Eagle Medium (DMEM) containing 10% fetal calf serum (FCS) in […] humidified atmosphere at 37° C. at an initial density of 5×10^5 per well in 24 well disposable plastic plates (Falcon, Oxnard, Calif.). Arrest of DNA synthesis (i.e., G0 /G1) was achieved by incubating the cells for 48 hours in serum-free DMEM containing 0.1% bovine serum albumin (BSA). The cells were then exposed to the peptide or to various […], or to FCS for 48 hours. Enhanced thymidine incorporation was assessed following a 2 hour pulse of N-methyl^3 [H]-TdR (1 μCi/ml). […]
(§3) The various cell lines employed in these tests were the murine macrophage-like cell lines J774, P388D1, RAW and PU5. […] The results are expressed as the mean of triplicate determinations.

[2] = test system: RAW macrophage-like cell line; experiment: 3[H]-TdR incorporation in growth-arrested RAW cells; format: cell-based, murine; conditions: test (2), 10^-8 M (optimal concentration), mean ± s.e.m.
Method: as §1, §2, §3

[3] = test system: J774 murine macrophage-like cells; experiment: 3[H]-TdR incorporation in growth-arrested J774 cells; format: cell-based
Method: as §1
(§4) ^3 [H]-TdR incorporation. Various cell lines were plated in Dulbeccos's Modified Eagle Medium (DMEM) containing 10% fetal calf serum (FCS) in […] humidified atmosphere at 37° C. at an initial density of 5×10^5 per well in 24 well disposable plastic plates (Falcon, Oxnard, Calif.). Arrest of DNA synthesis (i.e., G0 /G1) was achieved by incubating the cells for 48 hours in serum-free DMEM containing 0.1% bovine serum albumin (BSA). The cells were then exposed to the peptide or to various […], or to FCS for 48 hours. Enhanced thymidine incorporation was assessed following a 2 hour pulse of N-methyl^3 [H]-TdR (1 μCi/ml). The cells were washed ×3 in PBS (phosphate buffered saline, pH 7.4) at 4, precipitated with 10% trichloroacetic acid (30 min at 4) and the insoluble material extracted ×2 with ETOH:ET2 O (3:1 v/v). The precipitate was solubilized in N NaOH and aliquots withdrawn for protein determinations using a dye-binding assay (Bio Rad Labs., Richmond, Calif.) and liquid scintillation spectrometry.
The various cell lines employed in these tests were the murine macrophage-like cell lines J774, P388D1, RAW and PU5. The various […] used in these tests were platelet-derived growth factor (PDGF), epidermal growth factor (EGF), fibroblast growth factor (FGF), and nerve growth factor (NGF). For background information on these known polypeptide growth factors, see, for example, the recent review article by Kris is et al., Biotechnology, February 1985, pp. 135-140; and the comprehensive review in Hormonal Proteins and Peptides, Ed. by Choh Hao Li, Vol. 12, "Growth Factors," Academic Press, 1984. EGF, NGF and FGF are commercially available from Biomedical Technologies, Cambridge, Mass. In a representative test, 24 hours following exposure of the growth-arrested cells to optimal concentrations of the peptide (i.e., 10^-8 M), cell numbers increased approximately two-fold from a control value of […] cells/culture well. […] The results are set forth in FIG. 2 and in Table I, below. In FIG. 2, the baseline tritiated thymidine (^3 [H]-TdR) incorporation in quiescent J774 cells was 5000 cpm±420 s.e.m. (standard error of the mean) per well. The results are expressed as the mean of triplicate determinations.

[4] = test system: murine macrophage-like cell lines J774, P388D1, RAW and PU5; experiment: Cell number (proliferation) of growth-arrested macrophage-like cells; format: cell-based; conditions: 24 hours after exposure of growth-arrested cells to 10^-8 M (optimal concentration)
Method: as §4
as §3, with “PU5. The various […] used in these tests were platelet-derived growth factor (PDGF), epidermal growth factor (EGF), fibroblast growth factor (FGF), and nerve growth factor (NGF).” for “PU5.”

[5] = test system: PU5 macrophage-like cell line; experiment: 3[H]-TdR incorporation in growth-arrested PU5 cells; format: cell-based, murine; conditions: test (2), PU5, 10^-6 M (optimal concentration), mean ± s.e.m.
Method: as §1, §2, §3

[6] = test (1), J774, >500 ng per well (highest concentration tested), mean ± s.e.m.

## H-NKNFTENDLL-OH [Peptide IV, H-Asn-Lys-Asn-Phe-Thr-Glu-Asn-Asp-Leu-Leu-OH]
macrophage-like cells
  mitogenic activity for macrophage-like cells: inactive

## H-TENDLL-OH [Peptide III, H-Thr-Glu-Asn-Asp-Leu-Leu-OH]
macrophage-like cells
  mitogenic activity for macrophage-like cells: inactive

## H-YPPWNKNFTENDLL-OH [Peptide I, H-Tyr-Pro-Pro-Trp-Asn-Lys-Asn-Phe-Thr-Glu-Asn-Asp-Leu-Leu-OH]
[1]
  3[H]-TdR Incorporation/mg Protein (% Increase): 226± 22 % Increase
[2]
  3[H]-TdR Incorporation/mg Protein (% Increase): 276± 18 % Increase
[3]; test (1), J774, 10^-8 M (optimal concentration), 48 h exposure, mean ± s.e.m. of triplicate cultures
  3[H]-TdR Incorporation/mg Protein (% Increase): 140± 8.5 % Increase
[3]; test (2), J774, 10^-8 M (optimal concentration), mean ± s.e.m.
  3[H]-TdR Incorporation/mg Protein (% Increase): 190± 12 % Increase
[4]
  increase of cell numbers over control: approximately two-fold
[5]
  3[H]-TdR Incorporation/mg Protein (% Increase): 112± 4.4 % Increase

## epidermal growth factor [EGF]
[3]; [6]
  3[H]-TdR Incorporation/mg Protein (% Increase): 5.2 ± 0.2 % Increase

## fibroblast growth factor [FGF]
[3]; [6]
  3[H]-TdR Incorporation/mg Protein (% Increase): 0 ± 0.4 % Increase

## nerve growth factor [NGF]
[3]; [6]
  3[H]-TdR Incorporation/mg Protein (% Increase): 0 ± 0.5 % Increase

## platelet-derived growth factor [PDGF]
[3]; [6]
  3[H]-TdR Incorporation/mg Protein (% Increase): 9.4 ± 0.3 % Increase
